# Results reported in US9023385B2, “Pharmaceutical use of 2-(4-morpholinoaniline)-6-cyclohexyl aminopurine and/or salt thereof for improving liver functioning” (Zhangzhou Pien Tze Huang Pharmaceutical Co., Ltd., priority 2011, dated 2015).
# Entries after “also recorded” stand apart in the source; their conditions may differ.
# Assays:
# [1] = test system: CCl4-induced liver fibrosis; conditions: Sprague-Dawley rats, CCl4 i.p. 6 weeks, then 50 or 100 μg/kg i.p. twice a week for two or four weeks
# Method: Twenty-four adult male Sprague-Dawley rats (500-600 g) were divided into 4 groups (n=6), the first group (control) was injected with carbon tetrachloride (CCl4) intraperitonally (i.p.) twice per week for 6 weeks to induce liver fibrosis. […] At the end of the experimentation, the different groups of rats were sacrificed and samples of the liver were collected and fixed in 4% buffered formalin for 24 hours. Paraffin embedded samples were sectioned for histology and immunohistochemistry. Liver samples were also collected and stored in −20° C. for Western Blot Analysis and RT-PCR quantification.
# [2] = test system: activated rat hepatic stellate cells; conditions: 5-10 μM
# Method: The isolation of the rat hepatic stellate cells: The liver of an adult male Sprague-Dawley rats (500-600 g) were excised out after perfusion with pronase and collagenase. The liver tissue was homogenized and centrifuged. […] The cells were cultured in DMEM (Dulbecco Meliorated Eagle Medium) with 20% FBS inside culture plates at a cell density of 1.5×10^5 cells/cm^2. After two days incubation, the culture medium was changed and the cell debris was washed and removed.
# The culture condition of rat hepatic stellate cells: The rat hepatic stellate cells were cultured in DMEM containing 20% fetal bovine serum (FBS), penicillin (100 U/ml) and streptomycin (100 ug/ml) at 37° C. in 5% CO2. The culture medium was changed for every fourth day.
# The inhibitory effect of 2-(4-morpholinoaniline)-6-cyclohexyl aminopurine on activated rat hepatic stellate cells: The cells were treated with 5-10 μM of 2-(4-morpholinoaniline)-6-cyclohexyl aminopurine for 24 hours. The treated cells were then collected for Microarrays analysis. The treated cells were also processed for immunofluorescence staining and RT-PCR quantification.
# The western blot analysis: The cells are disrupted in 200 μl lysis buffer (50 mM NaCl, 20 mM Tris (trihydroxymethyl aminomethane) pH 7.6, 1% Nonidet P-40, 1× protease inhibitor compounds) for 1 hour at 4° C. After incubation, the lysate was centrifuged at 16,000×g for 10 mins. The supernatant was transferred to a new tube and a protein quantification kit was used to quantify the concentration of proteins in each samples. 25 μg of total protein from each sample was loaded into the 10% SDS PAGE gel for analysis. Collagen-I, MMP-2, MMP-3, TIMP-2 and TIMP-3 mouse monoclonal antibodies (Santa Cruz Lab) were used to analyze the samples. Beta-actin and beta-tubulin monoclonal antibodies (1:1000 diluted) were used as internal control and normalization.
compound,measurement,setting,value
c1nc2c(NC3CCCCC3)nc(Nc3ccc(N4CCOCC4)cc3)nc2[nH]1 [2-(4-morpholinoaniline)-6-cyclohexyl aminopurine],"Collagen synthesis in liver (histology, FIG. 5)",[1],effective in inhibiting collagen synthesis
same,Expression and synthesis of matrix metalloproteinases-2 (MMP-2) by activated hepatic stellate cells,[2]; treatment for 3 days (FIG. 3B),inhibited them from expressing and synthesizing and MMP-2; also recorded: suppressed activated hepatic stellate cells from expressing and synthesizing MMP-2 and MMP-3
same,Expression and synthesis of matrix metalloproteinases-3 (MMP-3) by activated hepatic stellate cells,[2]; treatment for 3 days (FIG. 3D),inhibited them from expressing and synthesizing MMP-3; also recorded: suppressed activated hepatic stellate cells from expressing and synthesizing MMP-2 and MMP-3
same,Expression and synthesis of tissue inhibitor of metalloproteinase-2 (TIMP-2) by activated hepatic stellate cells,[2]; treatment for 3 days (FIG. 4B),could inhibit activated hepatic stellate cells from expressing and synthesizing TIMP-2; also recorded: could inhibit the cells from producing TIMP-2 and TIMP-3
same,Expression and synthesis of TIMP-3 by activated hepatic stellate cells,[2]; treatment for 3 days (FIG. 4D),inhibited them from expressing and synthesizing TIMP-3; also recorded: could inhibit the cells from producing TIMP-2 and TIMP-3
